This test concerns the target T1, vanilloid receptor 1 (VR1/TRPV1 receptor) (Homo sapiens, UniProt Q8NER1).
T1 construct: expressed in transfected cells; host or cells: CHO K1
The test can be described thus: Functional testing on the vanilloid receptor 1 (VR1/TRPV1): FLIPR Ca2+ influx assay, displacement of capsaicin. The format is cell-based, human being. Set-up: key to mode of action at VR1/TRPV1 (AG, pAG, NE), Cap: AG=agonist; NE=no effect; pAG=partial agonist. The settings on record: for Ki: capsaicin (Cap) as stimulus, Ki from IC50 by Cheng-Prusoff, read-out: (f) Ki (human being) [nM] Cap; for inhibition at 5 µM: 5 μM compound, read-out: inhibition (as a percentage) at the concentration after @, Cap; for inhibition at 5 µM / mode of action at VR1/TRPV1 (AG, pAG, NE), Cap: capsaicin (Cap), human being. The procedure, abridged:
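Fluo-4 FLIPR Ca2+ influx in CHO K1 cells transfected with human VR1, measuring displacement of 100 nM capsaicin; rat VR1 agonism/antagonism also assessed in rat dorsal root ganglion neurons cultured 2–3 days at 37° C with 25 ng/mL NGF, then loaded with 2 μM Fluo-4.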

The structures appear in SMILES notation.

T1 sequence (Q8NER1 whole entry): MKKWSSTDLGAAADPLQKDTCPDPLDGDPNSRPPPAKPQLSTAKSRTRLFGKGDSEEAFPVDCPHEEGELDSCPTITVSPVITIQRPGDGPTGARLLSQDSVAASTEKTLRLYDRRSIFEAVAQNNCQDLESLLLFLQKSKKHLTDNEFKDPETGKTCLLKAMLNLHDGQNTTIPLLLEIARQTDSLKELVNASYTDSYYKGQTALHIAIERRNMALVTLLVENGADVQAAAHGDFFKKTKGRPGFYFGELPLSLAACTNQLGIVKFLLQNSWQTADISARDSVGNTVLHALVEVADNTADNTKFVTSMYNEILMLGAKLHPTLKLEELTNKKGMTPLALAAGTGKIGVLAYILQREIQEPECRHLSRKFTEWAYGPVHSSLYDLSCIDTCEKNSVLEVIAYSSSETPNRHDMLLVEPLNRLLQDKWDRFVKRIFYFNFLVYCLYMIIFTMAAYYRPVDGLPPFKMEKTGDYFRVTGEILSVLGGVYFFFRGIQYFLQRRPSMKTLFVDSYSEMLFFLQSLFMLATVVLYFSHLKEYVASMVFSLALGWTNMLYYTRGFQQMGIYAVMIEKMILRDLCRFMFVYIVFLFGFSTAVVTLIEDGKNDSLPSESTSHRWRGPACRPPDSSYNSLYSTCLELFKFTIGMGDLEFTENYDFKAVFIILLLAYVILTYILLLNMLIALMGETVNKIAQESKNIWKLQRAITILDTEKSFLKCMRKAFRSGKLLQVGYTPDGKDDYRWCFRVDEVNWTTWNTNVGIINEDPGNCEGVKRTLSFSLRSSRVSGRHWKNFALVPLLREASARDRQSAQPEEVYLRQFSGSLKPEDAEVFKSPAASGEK

With `COc1cc(C(C)C(=O)NCc2cc(C(C)(C)C)nn2-c2cccc(Cl)c2)cnc1NS(C)(=O)=O` (centres unmarked) [Example 105, N-((3-tert-butyl-1-(3-chlorophenyl)-1H-pyrazol-5-yl)methyl)-2-(5-methoxy-6-(methylsulfonamido)pyridin-3-yl)propanamide], the Ki (as a rule, the equilibrium dissociation constant of an inhibitor or competing ligand from its target) came to 2 nM.

For the molecule `CN(C)c1ncc(NC(=O)NCc2cc(C(F)(F)F)nn2-c2cccc(Cl)c2)cc1C(F)(F)F` [Example 106, 1-((1-(3-chlorophenyl)-3-(trifluoromethyl)-1H-pyrazol-5-yl)methyl)-3-(6-(dimethylamino)-5-(trifluoromethyl)pyridin-3-yl)urea], the Ki came to 25 nM.

For `CN(C)c1ncc(NC(=O)NCc2cc(C(C)(C)C)nn2-c2cccc(Cl)c2)cc1C(F)(F)F` [Example 107, 1-((3-tert-butyl-1-(3-chlorophenyl)-1H-pyrazol-5-yl)methyl)-3-(6-(dimethylamino)-5-(trifluoromethyl)pyridin-3-yl)urea], the inhibition constant (Ki) stood at 5 nM.

As for `CC(C)(C)c1cc(CNC(=O)Nc2ccc(N3CCC3)nc2)n(-c2cccc(Cl)c2)n1` [Example 108, 1-(6-(azetidin-1-yl)pyridin-3-yl)-3-((3-tert-butyl-1-(3-chlorophenyl)-1H-pyrazol-5-yl)methyl)urea], the Ki turned out to be 43 nM.

For the molecule `O=C(NCc1cc(C(F)(F)F)nn1-c1cccc(Cl)c1)Nc1ccc(N2CCC2)nc1` [Example 109, 1-(6-(azetidin-1-yl)pyridin-3-yl)-3-((1-(3-chlorophenyl)-3-(trifluoromethyl)-1H-pyrazol-5-yl)methyl)urea], the Ki was 46 nM.

For `CC(C)(C)c1cc(CNC(=O)Nc2ccc(N3CC(O)C3)nc2)n(-c2cccc(F)c2)n1` [Example 110, 1-((3-tert-butyl-1-(3-fluorophenyl)-1H-pyrazol-5-yl)methyl)-3-(6-(3-hydroxyazetidin-1-yl)pyridin-3-yl)urea], the inhibition constant (Ki) amounted to 37 nM.

Regarding `O=C(NCc1cc(C(F)(F)F)nn1-c1cccc(Cl)c1)Nc1ccc(N2CC(O)C2)nc1` [Example 111, 1-((1-(3-chlorophenyl)-3-(trifluoromethyl)-1H-pyrazol-5-yl)methyl)-3-(6-(3-hydroxyazetidin-1-yl)pyridin-3-yl)urea], the Ki is 38 nM.

Turning to `O=C(NCc1cc(C(F)(F)F)nn1-c1cccc(F)c1)Nc1ccc(N2CC(O)C2)nc1` [Example 112, 1-((1-(3-fluorophenyl)-3-(trifluoromethyl)-1H-pyrazol-5-yl)methyl)-3-(6-(3-hydroxyazetidin-1-yl)pyridin-3-yl)urea], the Ki came to 48 nM.

On to `O=C(NCc1cc(C(F)(F)F)nn1-c1ccc(F)c(Cl)c1)Nc1ccc(N2CC(O)C2)nc1` [Example 113, 1-((1-(3-chloro-4-fluorophenyl)-3-(trifluoromethyl)-1H-pyrazol-5-yl)methyl)-3-(6-(3-hydroxyazetidin-1-yl)pyridin-3-yl)urea], for which the Ki was 80 nM.

Take `Cc1cccc(-n2nc(C(F)(F)F)cc2CNC(=O)Nc2ccc(N3CC(O)C3)nc2)c1` [Example 114, 1-(6-(3-hydroxyazetidin-1-yl)pyridin-3-yl)-3-((1-m-tolyl-3-(trifluoromethyl)-1H-pyrazol-5-yl)methyl)urea]: the Ki is 35 nM.

On to `CC(C)c1cccc(-n2nc(C(F)(F)F)cc2CNC(=O)Nc2ccc(N3CC(O)C3)nc2)c1` [Example 115, 1-(6-(3-hydroxyazetidin-1-yl)pyridin-3-yl)-3-((1-(3-isopropylphenyl)-3-(trifluoromethyl)-1H-pyrazol-5-yl)methyl)urea], for which the inhibition constant Ki was found to be 2 nM.

As for `CC(C)(C)c1cc(CNC(=O)Nc2ccc(N3CC(O)C3)nc2)n(-c2cccc(Cl)c2)n1` [Example 117, 1-((3-tert-butyl-1-(3-chlorophenyl)-1H-pyrazol-5-yl)methyl)-3-(6-(3-hydroxyazetidin-1-yl)pyridin-3-yl)urea], the Ki was found to be 18 nM.

Turning to `CC(C)(C)c1cc(CNC(=O)Nc2ccc(N3CCCC3)nc2)n(-c2cccc(Cl)c2)n1` [Example 120, 1-((3-tert-butyl-1-(3-chlorophenyl)-1H-pyrazol-5-yl)methyl)-3-(6-(pyrrolidin-1-yl)pyridin-3-yl)urea], the Ki worked out at 23 nM.

For the molecule `O=C(NCc1cc(C(F)(F)F)nn1-c1cccc(Cl)c1)Nc1ccc(N2CCCC2)nc1` [Example 121, 1-((1-(3-chlorophenyl)-3-(trifluoromethyl)-1H-pyrazol-5-yl)methyl)-3-(6-(pyrrolidin-1-yl)pyridin-3-yl)urea], the Ki is 47 nM.

Take `COc1cc(NC(=O)NCc2cc(C(F)(F)F)nn2-c2cccc(Cl)c2)cnc1N1CCCC1` [Example 123, 1-((1-(3-chlorophenyl)-3-(trifluoromethyl)-1H-pyrazol-5-yl)methyl)-3-(5-methoxy-6-(pyrrolidin-1-yl)pyridin-3-yl)urea]: the inhibition constant Ki stood at 83 nM.

`O=C(NCc1cc(C(F)(F)F)nn1-c1cccc(Cl)c1)Nc1ccc(N2CC[C@@H](O)C2)nc1` [Example 124, (R)-1-((1-(3-chlorophenyl)-3-(trifluoromethyl)-1H-pyrazol-5-yl)methyl)-3-(6-(3-hydroxypyrrolidin-1-yl)pyridin-3-yl)urea]: the Ki amounted to 64 nM.

As to `O=C(NCc1cc(C(F)(F)F)nn1-c1cccc(Cl)c1)Nc1ccc(N2CC[C@H](O)C2)nc1` [Example 125, (S)-1-((1-(3-chlorophenyl)-3-(trifluoromethyl)-1H-pyrazol-5-yl)methyl)-3-(6-(3-hydroxypyrrolidin-1-yl)pyridin-3-yl)urea], the Ki stood at 64 nM.

In the case of `CC(C)(C)c1cc(CNC(=O)Nc2ccc(N3CC[C@@H](O)C3)nc2)n(-c2cccc(Cl)c2)n1` [Example 126, (R)-1-((3-tert-butyl-1-(3-chlorophenyl)-1H-pyrazol-5-yl)methyl)-3-(6-(3-hydroxypyrrolidin-1-yl)pyridin-3-yl)urea], the Ki stood at 61 nM.

With `CC(C)(C)c1cc(CNC(=O)Nc2ccc(N3CC[C@H](O)C3)nc2)n(-c2cccc(Cl)c2)n1` [Example 127, (S)-1-((3-tert-butyl-1-(3-chlorophenyl)-1H-pyrazol-5-yl)methyl)-3-(6-(3-hydroxypyrrolidin-1-yl)pyridin-3-yl)urea], the Ki was determined as 61 nM.

For `COc1ccc(C(C)C(=O)NCc2cc(C(F)(F)F)nn2-c2cccc(Cl)c2)cn1` (centres unmarked) [Example 129, N-((1-(3-chlorophenyl)-3-(trifluoromethyl)-1H-pyrazol-5-yl)methyl)-2-(6-methoxypyridin-3-yl)propanamide], the Ki amounted to 13 nM.

On to `COc1ncc(NC(=O)NCc2cc(C(F)(F)F)nn2-c2cccc(Cl)c2)cn1` [Example 130, 1-((1-(3-chlorophenyl)-3-(trifluoromethyl)-1H-pyrazol-5-yl)methyl)-3-(2-methoxypyrimidin-5-yl)urea], for which the inhibition at 5 µM was 47%.

In the case of `COCCOc1ccc(NC(=O)NCc2cc(C(C)(C)C)nn2-c2cccc(Cl)c2)cn1` [Example 131, 1-((3-tert-butyl-1-(3-chlorophenyl)-1H-pyrazol-5-yl)methyl)-3-(6-(2-methoxyethoxy)pyridin-3-yl)urea], the inhibition at 5 µM came out at 83% and the “mode of action at VR1/TRPV1 (AG, pAG, NE), Cap” value is reported as “AG”.

In the case of `COCCOc1ccc(NC(=O)NCc2cc(C(F)(F)F)nn2-c2cccc(Cl)c2)cn1` [Example 132, 1-((1-(3-chlorophenyl)-3-(trifluoromethyl)-1H-pyrazol-5-yl)methyl)-3-(6-(2-methoxyethoxy)pyridin-3-yl)urea], the inhibition at 5 µM stood at 45%.

Regarding `O=C(NCc1cc(C(F)(F)F)nn1-c1cccc(Cl)c1)Nc1ccc(OCCO)nc1` [Example 133, 1-((1-(3-chlorophenyl)-3-(trifluoromethyl)-1H-pyrazol-5-yl)methyl)-3-(6-(2-hydroxyethoxy)pyridin-3-yl)urea], the Ki is 88 nM.

As for `O=C(NCc1cc(C(F)(F)F)nn1-c1cccc(Cl)c1)Nc1ccc(CNCCO)nc1` [Example 134, 1-((1-(3-chlorophenyl)-3-(trifluoromethyl)-1H-pyrazol-5-yl)methyl)-3-(6-((2-hydroxyethylamino)methyl)pyridin-3-yl)urea], the “mode of action at VR1/TRPV1 (AG, pAG, NE), Cap” value is “NE”.

For `CN(CCO)Cc1ccc(NC(=O)NCc2cc(C(F)(F)F)nn2-c2cccc(Cl)c2)cn1` [Example 135, 1-((1-(3-chlorophenyl)-3-(trifluoromethyl)-1H-pyrazol-5-yl)methyl)-3-(6-(((2-hydroxyethyl)(methyl)amino)methyl)pyridin-3-yl)urea], the inhibition at 5 µM was found to be 22%.

For `Cc1ccc(NC(=O)NCc2cc(C(F)(F)F)nn2-c2cccc(Cl)c2)cn1` [Example 136, 1-((1-(3-chlorophenyl)-3-(trifluoromethyl)-1H-pyrazol-5-yl)methyl)-3-(6-methylpyridin-3-yl)urea], the Ki was determined as 47 nM.

As to `Cc1cncc(NC(=O)NCc2cc(C(F)(F)F)nn2-c2cccc(Cl)c2)c1` [Example 137, 1-((1-(3-chlorophenyl)-3-(trifluoromethyl)-1H-pyrazol-5-yl)methyl)-3-(5-methylpyridin-3-yl)urea], the Ki was determined as 55 nM.

For the molecule `Cc1cc(C)c(NC(=O)NCc2cc(C(F)(F)F)nn2-c2cccc(Cl)c2)cn1` [Example 138, 1-((1-(3-chlorophenyl)-3-(trifluoromethyl)-1H-pyrazol-5-yl)methyl)-3-(4,6-dimethylpyridin-3-yl)urea], the Ki is 90 nM.

For `CC(C)(C)c1cc(CNC(=O)Nc2ccc(CO)cn2)n(-c2cccc(Cl)c2)n1` [Example 139, 1-((3-tert-butyl-1-(3-chlorophenyl)-1H-pyrazol-5-yl)methyl)-3-(5-(hydroxymethyl)pyridin-2-yl)urea], the Ki came to 109 nM.

For `Cc1nc(CO)ccc1NC(=O)NCc1cc(C(F)(F)F)nn1-c1cccc(Cl)c1` [Example 141, 1-((1-(3-chlorophenyl)-3-(trifluoromethyl)-1H-pyrazol-5-yl)methyl)-3-(6-(hydroxymethyl)-2-methylpyridin-3-yl)urea], the inhibition at 5 µM worked out at 51%.

The values above are taken from patent publication US20130029962A1, “Substituted Heteroaromatic Pyrazole-Containing Carboxamide and Urea Compounds as Vanilloid Receptor Ligands” (Gruenenthal GmbH, priority 2011, published 2013).
